According to patent US20230286925A1, “PHENYL TRIAZOLE MLL1-WDR5 PROTEIN-PROTEIN INTERACTION INHIBITOR” (HUYABIO International, LLC, priority 2022, published 2023):

Key:
hERG = hERG (Homo sapiens (Human), UniProt Q12809); assay: hERG assay (radioligand membrane binding)
Method: Procedure: Compounds were prepared and diluted with DMSO to make 0.2 mM and 0.02 mM. Reference compound was diluted with DMSO to make 8-point 4-fold serial dilution, starting at 0.2 mM. One μl of compounds/high control/low control was transferred to the assay plate according to the plate map. Next, and by following the plate map, 100 μl of membrane stocks was dispensed into the plate followed by adding 100 μl of radio ligand. Plates were then sealed and were incubated at RT for 1 hrs. In the meantime, soak the Unifilter-96 GF/C filter plates with 50 μl of 0.5% BSA per well for at least 0.5 hour at room temperature. When binding assays are completed, filter the reaction mixture through GF/C plates using Perkin Elmer Filtermate Harvester, and then wash each plate for 4 times with cold wash buffer. Next, Dry the filter plates for 1 hour at 50 degrees and seal the bottom of the filter plate wells using Perkin Elmer Unifilter-96 backing seal tape. Next, add 50 μl of Perkin Elmer Microscint 20 cocktail. Seal the top of the filter plate with Perkin Elmer TopSeal-A sealing film. Using Perkin Elmer MicroBeta2 Reader count ^3H trapped on filter. Finally, analyze the data with GraphPad Prism 5. Calculate the “Inhibition [% Control]” using the equation: % Inh=(1−Background subtracted Assay value/Background subtracted HC value)*100.
The compound of the disclosure were tested in several hERG assays.

[1] = target: MLL1-WDR5 protein-protein interaction (Homo sapiens (Human), UniProt P61964); assay: WDR5 TR-FRET assay of inhibition against MLL1-WDR5 protein-protein interaction; format: binding; conditions: WDR5 TR-FRET, 5 nM WDR5 protein, 10 nM peptide; read-out: MLL1-WDR5 PPI inhibitory activity
Method: WDR5 TR-FRET Assay Procedure: Stock compounds were transferred to the assay plate by Echo Liquid Handler. Reactions were performed in the assay buffer (1×PBS, 300 mM NaCl, 0.5 mM TCEP, 0.1% CHAPS) containing 5 nM WDR5 protein, 10 nM peptide (Ac-ARTEVHLRKS-[Ahx-Ahx] [C]-Alexa Fluor 488-NH2) and 0.25 nM Tb-anti His antibody (Tb-Ab) in 384-well white plate (PerkinElmer) with a final volume of 20 μl. Compounds were incubated with WDR5 protein for 30 min at room temperature. Plates were covered, protected from light and incubated for 60 min at room temperature after adding the peptide and Tb-Ab. EnVision Multimode Plate Reader (PerkinElmer) was used for the TR-FRET assay with excitation wavelength at 340 nm and emission wavelength at 495 and 520 nm. The ratio of the 520/495 wavelengths were used to assess the degree of the FRET signal. IC50 was calculated by fitting the inhibition data using XLfit software to sigmoidal dose-response model.
Biphenyl compound DDO-2084 was reported to be a small molecule inhibitor that can inhibit MLL1-WDR5 protein-protein interaction, reduce MLL1 enzyme catalytic activity, and downregulate the expression of Hox and Meis-1 genes (Eur. J. Med. Chem. 2016, 124, 480-489). DDO-2084 is used as a positive control compound.

MV-411 cells = assay: Anti-proliferative activity against leukemia cells (CellTiterGlo viability, 72 hrs); format: cell-based; conditions: Table 6
Method: Procedure: MV-411 or Molm-13 cells were seeded into 384 well plates at 2000 cells/well density in 50 uL according plate map and were allowed to naturally sediment by waiting about 30 min in Clean Bench. Next, plated cells were centrifuged for 1 min at 1000 rpm and the excess cells were transferred into the flasks for further culture. Cells in the assay plates were incubated (at least 4 hrs) at 37° C., 5% CO2 for next process followed by adding the compounds as the plate map indicated. The tests were performed in duplicates with treatment of compounds at 10 pts 3 fold titration in 384 well plates. Taxol was as positive control while DMSO as negative control. To rule out edge effect, the wells on the edge were not seeded and therefore one 384 well plate holds 13 compounds. Cells viability was measured 72 hrs after incubation with compounds and using CellTiterGlo (promega) viability assay according to manufactory's instruction to check the ATP production in each well.
Experiments on anti-proliferative activity against leukemia cells were conducted with some of the compounds of the invention.

[2] = MV4-11, MV-411 human acute monocytic leukemia cell
[3] = MV-411 human acute monocytic leukemia cell

Sequence of hERG (Q12809 whole entry): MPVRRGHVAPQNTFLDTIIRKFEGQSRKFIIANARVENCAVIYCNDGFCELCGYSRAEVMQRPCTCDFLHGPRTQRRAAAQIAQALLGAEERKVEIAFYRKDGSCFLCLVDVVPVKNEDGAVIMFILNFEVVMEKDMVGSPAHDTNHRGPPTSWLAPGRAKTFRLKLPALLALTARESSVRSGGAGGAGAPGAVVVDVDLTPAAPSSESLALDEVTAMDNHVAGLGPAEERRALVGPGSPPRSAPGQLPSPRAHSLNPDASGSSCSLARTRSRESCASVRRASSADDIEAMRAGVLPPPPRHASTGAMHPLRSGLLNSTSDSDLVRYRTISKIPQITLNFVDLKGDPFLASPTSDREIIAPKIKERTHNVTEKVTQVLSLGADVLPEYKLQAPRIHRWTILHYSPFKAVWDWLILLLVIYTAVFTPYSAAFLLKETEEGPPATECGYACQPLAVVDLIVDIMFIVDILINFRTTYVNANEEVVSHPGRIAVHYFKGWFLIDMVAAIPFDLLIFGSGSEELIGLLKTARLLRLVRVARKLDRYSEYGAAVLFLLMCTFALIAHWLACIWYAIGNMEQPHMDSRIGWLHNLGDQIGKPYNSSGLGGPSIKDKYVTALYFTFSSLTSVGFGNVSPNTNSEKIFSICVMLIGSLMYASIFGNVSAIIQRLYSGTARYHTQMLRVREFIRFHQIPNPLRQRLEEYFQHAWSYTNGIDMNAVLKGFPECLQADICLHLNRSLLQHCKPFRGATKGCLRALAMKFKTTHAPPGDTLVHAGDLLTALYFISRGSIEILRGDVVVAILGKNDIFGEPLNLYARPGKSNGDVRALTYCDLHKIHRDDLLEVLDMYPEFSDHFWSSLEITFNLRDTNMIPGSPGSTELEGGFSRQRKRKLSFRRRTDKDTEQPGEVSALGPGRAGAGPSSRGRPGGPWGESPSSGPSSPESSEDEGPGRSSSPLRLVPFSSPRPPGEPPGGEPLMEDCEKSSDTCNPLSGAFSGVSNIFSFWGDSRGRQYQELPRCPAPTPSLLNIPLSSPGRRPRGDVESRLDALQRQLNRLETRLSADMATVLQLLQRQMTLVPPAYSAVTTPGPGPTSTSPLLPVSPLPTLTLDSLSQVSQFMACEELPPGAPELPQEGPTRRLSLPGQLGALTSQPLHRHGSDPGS

| SMILES | IC50 (hERG) [µM] | Ki (hERG) [µM] | IC50 [1] [µM] | GI50 (MV-411 cells; [2]) [µM] | GI50 (MV-411 cells; [3]) [µM] |
| --- | --- | --- | --- | --- | --- |
| CCN(CC)C(=O)c1cn(-c2cc(NC(=O)c3cc(N)c(F)c(C)c3Cl)c(N3C[C@@H](C)N(C)[C@@H](C)C3)cc2F)nn1 [Compound 29, 1-(5-(5-amino-2-chloro-4-fluoro-3-methylbenzamido)-2-fluoro-4-((3S,5R)-3,4,5-trimethylpiperazin-1-yl)phenyl)-N,N-diethyl-1H-1,2,3-triazole-4-carboxamide] | 3.6 | 2.04 |  |  |  |
| Cc1c(F)c([N+](=O)[O-])cc(C(=O)Nc2cc(-n3cc(C(=O)NCCCN4CCOCC4)nn3)ccc2N2CCN(C)CC2)c1Cl [Example 18, 1-[3-[(2-chloro-4-fluoro-3-methyl-5-nitro-benzoyl)amino]-4-(4-methylpiperazin-1-yl)phenyl]-N-(3-morpholinopropyl)triazole-4-carboxamide] | > 10 |  |  |  |  |
| CN1CCN(c2ccc(-n3cc(C(=O)NCCCN4CCOCC4)nn3)cc2NC(=O)c2ccc(F)c([N+](=O)[O-])c2)CC1 [Example 19, 1-(3-(4-fluoro-3-nitrobenzamido)-4-(4-methylpiperazin-1-yl)phenyl)-N-(3-morpholinopropyl)-1H-1,2,3-triazole-4-carboxamide] | > 10 |  |  |  |  |
| CN1CCN(c2ccc(-n3cc(C(=O)NCCCN4CCOCC4)nn3)cc2NC(=O)c2ccc(F)c(C(F)(F)F)c2)CC1 [Example 21, 1-(3-(4-fluoro-3-(trifluoromethyl)benzamido)-4-(4-methylpiperazin-1-yl)phenyl)-N-(3-morpholinopropyl)-1H-1,2,3-triazole-4-carboxamide] | > 10 |  |  |  |  |
| CN1CCN(c2ccc(-n3cc(C(=O)NCCCN4CCOCC4)nn3)cc2NC(=O)c2cc(O)cc(C(F)(F)F)c2)CC1 [HYBI_046] |  |  | 0.271 | 10.5 |  |
| CN1CCN(c2ccc(-n3cc(C(=O)NCCCN4CCOCC4)nn3)cc2NC(=O)c2cc(O)cc(F)c2F)CC1 [HYBI_047] |  |  | 0.466 | 16.8 |  |
| CN1CCN(c2ccc(-n3cc(C(=O)NCCCN4CCOCC4)nn3)cc2NC(=O)c2nn(C)c3ccccc23)CC1 [HYBI_050] |  |  | 5.56 | 10.7 |  |
| Cc1c(F)ccc(C(=O)Nc2cc(-n3cc(C(=O)NCCCN4CCOCC4)nn3)c(F)cc2N2CCN(C)CC2)c1Cl [HYBI_053] |  |  | 0.0194 |  | 5.69 |
| CCN(CC)C(=O)c1cn(-c2cc(NC(=O)c3cc(N)c(F)c(C)c3Cl)c(N3C[C@@H](C)N(C)[C@@H](C)C3)cc2F)nn1 [HYBI_082] |  |  | 0.00491 |  | 2.4 |
| Cc1c(F)c(N)cc(C(=O)Nc2cc(-n3cc(C(=O)N4CCOCC4)nn3)c(F)cc2N2C[C@@H](C)N(C)[C@@H](C)C2)c1Cl [HYBI_083] |  |  | 0.00308 | 40.2 |  |
| Cc1c(F)c(N)cc(C(=O)Nc2cc(-n3cc(C(=O)N4CCN(C)CC4)nn3)c(F)cc2N2C[C@@H](C)N(C)[C@@H](C)C2)c1Cl [HYBI_084] |  |  | 0.00472 | 3.35 |  |
| Cc1c(F)c(N)cc(C(=O)Nc2cc(-n3cc(C(=O)NC4CCCCC4)nn3)c(F)cc2N2C[C@@H](C)N(C)[C@@H](C)C2)c1Cl [HYBI_085] |  |  | 0.00386 | 2.51 |  |
| Cc1c(F)c(N)cc(C(=O)Nc2cc(-n3cc(C(=O)NC4CCOCC4)nn3)c(F)cc2N2C[C@@H](C)N(C)[C@@H](C)C2)c1Cl [HYBI_086] |  |  | 0.00399 | 19.7 |  |
| Cc1c(F)c(N)cc(C(=O)Nc2cc(-n3cc(C(=O)NC4CCN(C)CC4)nn3)c(F)cc2N2C[C@@H](C)N(C)[C@@H](C)C2)c1Cl [HYBI_087] |  |  | 0.0026 | > 200 |  |
| Cc1c(F)c(N)cc(C(=O)Nc2cc(-n3cc(C(=O)NCCCN4CCN(C)CC4)nn3)c(F)cc2N2C[C@@H](C)N(C)[C@@H](C)C2)c1Cl [HYBI_101] |  |  | 0.00365 | 10.5 |  |
| Cc1c(F)c(N)cc(C(=O)Nc2cc(-n3cc(C(=O)NCC4CCCCC4)nn3)c(F)cc2N2C[C@@H](C)N(C)[C@@H](C)C2)c1Cl [HYBI_110] |  |  | 0.003 | 25 |  |
